{
  "source": "patent US9327059B2",
  "about": "“Steroid-containing sustained release intraocular implants and related methods” (Allergan, Inc., priority 2004, dated 2016)",
  "key": {"[1]": {"conditions": "in vivo; cited from earlier work"}, "[2]": {"assay": "Relative water solubility of the steroids", "assay_type": "physicochemical"}, "[3]": {"assay": "In vivo fluocinolone acetonide levels in rabbit eyes after intravitreal implant", "experimental": "The in vivo study was conducted on four rabbits. The fluocinolone-containing implants were surgically implanted into the posterior segment (i.e., the vitreous) of the right eye (OD) and left eye (OS) of each rabbit. The aqueous humor (15-20 μL) and the vitreous humor (150-200 μL) were withdrawn for the first two rabbits, while the sampling for the remaining two rabbits was determined by a sampling schedule wherein the sampling days were days 7, 14, 21, 40, and 60, 90, and 120."}},
  "note": "Like-named read-outs stand apart in the source and are kept apart here.",
  "data": [
    {"molecule": "CC(C)OC(=O)CCC/C=C\\C[C@@H]1[C@@H](CC[C@@H](O)CCc2ccccc2)[C@H](O)C[C@@H]1O", "note": "[latanoprost]", "values": [
      {"measurement": "human eyes with increase in brown pigment in the iris", "setting": "[1]", "result": "5-15%"}
    ]},
    {"molecule": "CC1(C)O[C@@H]2C[C@H]3[C@@H]4CCC5=CC(=O)C=C[C@]5(C)[C@@]4(F)[C@@H](O)C[C@]3(C)[C@]2(C(=O)CO)O1", "note": "[triamcinalone acetonide]", "values": [
      {"measurement": "water solubility, times more soluble than beclomethasone dipropionate", "setting": "[2]", "result": "about 150 times"}
    ]},
    {"molecule": "CC1(C)O[C@@H]2C[C@H]3[C@@H]4C[C@H](F)C5=CC(=O)C=C[C@]5(C)[C@@]4(F)[C@@H](O)C[C@]3(C)[C@]2(C(=O)CO)O1", "note": "[Fluocinolone acetonide, 1,4-pregnadien-6α, 9α-difluoro-11β, 16α,17,21-tetrol-3,20-dione 16,17-acetonide]", "values": [
      {"measurement": "fluocinolone acetonide level in anterior chamber / aqueous humor", "setting": "[3]; implant configuration #29, any time point", "result": "not detected"},
      {"measurement": "Fluocinolone (ng/mL) in vitreous humor, single eye", "setting": "[3]; intravitreal implant configuration #29, day 40", "result": 40.80, "unit": "ng/mL"},
      {"measurement": "concentration at 7 day", "setting": "[3]; vitreous humor, intravitreal implant configuration #29, day 7", "result": 95.9, "unit": "ng/mL"},
      {"measurement": "concentration at 14 day", "setting": "[3]; vitreous humor, intravitreal implant configuration #29, day 14", "result": 50.9, "unit": "ng/mL"},
      {"measurement": "concentration at 21 day", "setting": "[3]; vitreous humor, intravitreal implant configuration #29, day 21", "result": 45.7, "unit": "ng/mL"},
      {"measurement": "concentration at 40 day", "setting": "[3]; vitreous humor, intravitreal implant configuration #29, day 40, read-out: Fluocinolone (ng/mL) in vitreous humor, Average", "result": 42.4, "unit": "ng/mL"},
      {"measurement": "concentration at 40 day", "setting": "[3]; vitreous humor, intravitreal implant configuration #29, day 40, read-out: Fluocinolone (ng/mL) in vitreous humor, single eye", "result": 44, "unit": "ng/mL"},
      {"measurement": "concentration at 60 day", "setting": "[3]; vitreous humor, intravitreal implant configuration #29, day 60", "result": 50.6, "unit": "ng/mL"},
      {"measurement": "concentration at 90 day", "setting": "[3]; vitreous humor, intravitreal implant configuration #29, day 90", "result": 36.1, "unit": "ng/mL"},
      {"measurement": "concentration at 120 day", "setting": "[3]; vitreous humor, intravitreal implant configuration #29, day 120", "result": 28.1, "unit": "ng/mL"}
    ]}
  ]
}
